Data reported in the NIST ThermoML archive (doi:10.1021/je800998u).

Experiment: molar heat capacity at constant pressure
Details: 101.33 kPa, Small (less than 1 g) adiabatic calorimetry

CC(C)COCC(C)C [diisobutyl ether]
Details | molar heat capacity at constant pressure [J/K/mol]
140.67 K, Crystal 2 | 147.66
141.68 K, Crystal 2 | 148.47
142.69 K, Crystal 2 | 150.03
143.69 K, Crystal 2 | 151.09
144.7 K, Crystal 2 | 152.64
145.71 K, Crystal 2 | 153.6
146.72 K, Crystal 2 | 154.66
147.73 K, Crystal 2 | 156
148.74 K, Crystal 2 | 157.59
149.74 K, Crystal 2 | 159.31
150 K, Crystal 2 | 158.9
150.75 K, Crystal 2 | 160.48
151.76 K, Crystal 2 | 162.28
152.76 K, Crystal 2 | 163.63
153.77 K, Crystal 2 | 165.04
154.77 K, Crystal 2 | 166.47
155.77 K, Crystal 2 | 168.44
156.77 K, Crystal 2 | 170.7
157.77 K, Crystal 2 | 172.77
158.77 K, Crystal 2 | 174.55
159.76 K, Crystal 2 | 176.89
160 K, Crystal 2 | 171.1
160.22 K, Crystal 2 | 177.95
161.05 K, Crystal 2 | 179.83
161.87 K, Crystal 2 | 182.1
162.69 K, Crystal 2 | 184.81
163.5 K, Crystal 2 | 188
164.29 K, Crystal 2 | 190.62
165.08 K, Crystal 2 | 194.31
165.86 K, Crystal 2 | 198.38
166.64 K, Crystal 2 | 203.33
167.41 K, Crystal 2 | 209.11
168.16 K, Crystal 2 | 214.73
168.9 K, Crystal 2 | 223.05
169.63 K, Crystal 2 | 234.85
170.31 K, Crystal 2 | 282.57
170.71 K, Crystal 1 | 172.2
170.71 K, Crystal 2 | 184.2
171.96 K, Crystal 1 | 180.54
172.76 K, Crystal 1 | 180.42
173.54 K, Crystal 1 | 180.19
174.34 K, Crystal 1 | 181.2
175.14 K, Crystal 1 | 182.92
175.93 K, Crystal 1 | 183.75
176.72 K, Crystal 1 | 185.64
177.5 K, Crystal 1 | 187.45
178.28 K, Crystal 1 | 189.66
179.05 K, Crystal 1 | 192.53
179.81 K, Crystal 1 | 195.2
180 K, Crystal 1 | 193.8
190.4 K, Crystal 1 | 218
190.4 K, Liquid | 241.1
200 K, Liquid | 243.7
205.51 K, Liquid | 245.31
207.14 K, Liquid | 245.51
208.62 K, Liquid | 246.05
210 K, Liquid | 246.3
210.09 K, Liquid | 246.27
211.57 K, Liquid | 246.56
213.04 K, Liquid | 247.06
214.48 K, Liquid | 247.32
215.95 K, Liquid | 247.78
217.42 K, Liquid | 248.16
218.89 K, Liquid | 248.58
220 K, Liquid | 248.9
220.35 K, Liquid | 248.91
221.82 K, Liquid | 249.16
223.28 K, Liquid | 249.85
224.74 K, Liquid | 250.34
226.2 K, Liquid | 250.85
227.65 K, Liquid | 251.29
229.11 K, Liquid | 251.85
230 K, Liquid | 251.9
230.56 K, Liquid | 252.2
232.02 K, Liquid | 252.69
233.46 K, Liquid | 252.85
234.91 K, Liquid | 253.44
236.36 K, Liquid | 253.83
237.75 K, Liquid | 254.25
239.2 K, Liquid | 254.81
240 K, Liquid | 255
240.64 K, Liquid | 255.42
242.08 K, Liquid | 255.9
243.52 K, Liquid | 256
244.96 K, Liquid | 256.76
246.39 K, Liquid | 256.99
247.83 K, Liquid | 257.45
249.26 K, Liquid | 257.99
250 K, Liquid | 258.3
250.69 K, Liquid | 258.39
252.11 K, Liquid | 258.84
253.54 K, Liquid | 259.49
254.96 K, Liquid | 259.95
256.39 K, Liquid | 260.62
257.8 K, Liquid | 260.96
259.22 K, Liquid | 261.75
260 K, Liquid | 261.8
260.56 K, Liquid | 261.97
261.97 K, Liquid | 262.87
263.39 K, Liquid | 262.95
264.79 K, Liquid | 263.61
266.2 K, Liquid | 263.86
267.6 K, Liquid | 264.22
269 K, Liquid | 264.8
270 K, Liquid | 265.3
270.4 K, Liquid | 265.39
271.8 K, Liquid | 265.93
273.19 K, Liquid | 266.68
274.58 K, Liquid | 266.81
275.97 K, Liquid | 267.53
277.36 K, Liquid | 267.85
278.74 K, Liquid | 268.3
280 K, Liquid | 269
281.5 K, Liquid | 269.6
282.78 K, Liquid | 270.45
284.16 K, Liquid | 270.8
285.53 K, Liquid | 271.08
286.9 K, Liquid | 271.46
288.26 K, Liquid | 271.98
289.62 K, Liquid | 272.75
290 K, Liquid | 272.8
290.98 K, Liquid | 273.36
292.34 K, Liquid | 273.73
293.69 K, Liquid | 274.04
295.04 K, Liquid | 275.21
296.39 K, Liquid | 275.08
297.73 K, Liquid | 275.64
298.15 K, Liquid | 276.08
299.07 K, Liquid | 276.44
300 K, Liquid | 276.8
300.41 K, Liquid | 277.1
301.75 K, Liquid | 277.51
303.04 K, Liquid | 278.07
304.14 K, Liquid | 278.56
305.42 K, Liquid | 279.01
306.7 K, Liquid | 279.35
307.97 K, Liquid | 279.87
309.24 K, Liquid | 280.81
310 K, Liquid | 280.8
310.5 K, Liquid | 280.87
311.76 K, Liquid | 281.46
313.02 K, Liquid | 282.03
314.27 K, Liquid | 282.55
315.52 K, Liquid | 282.93
316.76 K, Liquid | 283.81
318 K, Liquid | 284.25
319.23 K, Liquid | 284.87
320 K, Liquid | 285
320.46 K, Liquid | 285.2
321.69 K, Liquid | 285.88
322.91 K, Liquid | 286.38
323.9 K, Liquid | 286.65
325.11 K, Liquid | 287.21
326.32 K, Liquid | 287.74
327.53 K, Liquid | 288.35
328.73 K, Liquid | 288.89
329.92 K, Liquid | 289.24
330 K, Liquid | 289.5
331.11 K, Liquid | 289.99
332.3 K, Liquid | 290.62
333.48 K, Liquid | 291.36
334.66 K, Liquid | 291.41
335.83 K, Liquid | 292.26
337 K, Liquid | 292.85
338.16 K, Liquid | 293.71
339.32 K, Liquid | 294.5
340 K, Liquid | 294.7
340.48 K, Liquid | 295.14
343.62 K, Liquid | 297.13
344.76 K, Liquid | 297.38
345.9 K, Liquid | 297.62
347.04 K, Liquid | 298.5
348.17 K, Liquid | 299
350 K, Liquid | 300
350.41 K, Liquid | 300.11
351.51 K, Liquid | 300.37
352.61 K, Liquid | 301.47
353.7 K, Liquid | 302.2
354.79 K, Liquid | 302.27
355.88 K, Liquid | 302.92
356.96 K, Liquid | 303.07
358.04 K, Liquid | 303.49
359.11 K, Liquid | 304.07
359.83 K, Liquid | 304.07
360 K, Liquid | 304.4
360.9 K, Liquid | 304.89
361.96 K, Liquid | 305.2
363.02 K, Liquid | 305.35
364.07 K, Liquid | 305.71
365.12 K, Liquid | 305.76
366.14 K, Liquid | 306.97
367.16 K, Liquid | 307.23
368.17 K, Liquid | 308
369.17 K, Liquid | 308.72
370 K, Liquid | 308.9
370.15 K, Liquid | 309.38
371.14 K, Liquid | 309.88
372.11 K, Liquid | 310.26
